Source: patent US6696621B2, “Selectable marker in plants” (Paradigm Genetics, Inc., priority 2001, dated 2004)

Columns and labels:
[1] = tested on: rice callus, derived from immature rice embryos of the variety TP309; assay: Dose response of clonNAT on rice callus growth and survival; format: cell-based; conditions: 26° C. in the dark
Experimental: a) Dose response. For selection of transgenic calli based on resistance to clonNAT following Agrobacterium-mediated transformation of rice callus material, a dose response experiment is made to determine the concentration of clonNAT in callus growth medium in order to inhibit the growth of rice callus, or to kill the rice cells. Growth media (GM) used for rice callus comprise the following basic components: N6 salts (Duchefa) 3.95 g/l; B5 vitamins (Duchefa) 112 mg/l; proline (Duchefa) 500 mg/l; glutamine (Duchefa) 500 mg/l; casein hydrolysate (Duchefa) 500 mg/l. […]
Several pieces of rice callus, derived from immature rice embryos of the variety TP309 (National Small Grain Collection, USDA, ARS, Aberdeen, Id.) are put on these plates, the plates are incubated at 26° C. in the dark, and survival of the embryos and proliferation of the embryo cells are observed every day. Based on the survival rate of the embryos on the media plates containing different concentrations of clonNAT, a useful concentration of clonNAT for selection of transgenic rice is determined to be within a range of about 20 to about 1000 mg/l or more, preferably about 200 mg/l or less. […]

[2] = tested on: wildtype Arabidopsis thaliana; assay: Dose response of clonNAT sprayed on wildtype Arabidopsis thaliana seedlings; format: in vivo; conditions: sprayed on three consecutive days with 0.005% Silwet L-77; assessed 36 hours after last spray
Experimental: a) Dose response. The selection conditions for plants that are transgenic with the nrg gene are determined in a dose response experiment. From about 2000 to 3000 wildtype Arabidopsis thaliana seeds per pot are sown in 5″×5″ (13 cm×13 cm) soil pots. When the first true leaves of the seedlings have emerged after approximately 7 days, the seedlings are sprayed with a hand-held sprayer until all leaf material is completely wet on three consecutive days with a solution of 0.005% Silwet L-77 (50 ul/l) in water and variable concentrations of clonNAT (1, 5, 10, 20, 50, 100, 250, 500 mg/l). The results are assessed 36 hours after the last spray. A useful range of concentration of clonNAT for selection of transgenic Arabidopsis plants (as assessed as concentrations that kill non-transgenic Arabidopsis plants after applying the described sprayings) is determined within a range of about 20 to about 1000 mg/l or more, preferably about 200 mg/l or less.

[3] = Ability of NRG protein to impart resistance to nourseothricin; conditions: NRG protein with aspartate instead of glycine at position 70

Row | Molecule | preferred concentration of clonNAT for selection of transgenic rice ([1]; callus growth medium plates, based on survival rate of embryos) [mg/L] | fate of embryo-derived rice callus on clonNAT-containing medium plates ([1]; clonNAT 200 mg/l selection plates, after 4-5 weeks) | preferred concentration of clonNAT for selection of transgenic Arabidopsis plants [2] [mg/L] | ability to impart resistance to the nourseothricin antibiotic [3]
1 | 2-[4-O-Carbamoyl-2-deoxy-2-(3,6-diaminohexan-amido)-B-D-gulopyranoslamino)-3,3a,5 ,6,7,7a-hexahydro-5-hydroxy-4H-imidazo[4,5-c]pyridin-4one dihydrogensulphate [clonNAT] | ≤ 200 | died | ≤ 200 | –
2 | NRG protein: novel nourseothricin N-acetyltransferase, amino acid sequence of SEQ ID NO. 1; confers resistance to nourseothricin (protein, Novel protein conferring resistance to the antibiotic known as nourseothricin) MTTLDDTAYRYRTSVPGDAEAIEALDGSFTTDTVFRVTATGDGFTLREVPVDPPLTKVFPDDESDDESDDGEDGDPDSRTFVAYGDDGDLAGFVVVSYSGWNRRLTVEDIEVAPEHRGHGVGRALMGLATEFARERGAGHLWLEVTNVNAPAIHAYRRMGFTLCGLDTALYDGTASDGEQALYMSMPCP | – | – | – | retains the ability to impart resistance
